According to ChEMBL document CHEMBL1127792, “Total synthesis and biological properties of novel antineoplastic (chloromethyl)furanoindolines: an asymmetric hydroboration mediated synthesis of the alkylation subunits” (J Med Chem, 1994):
In brackets after ≈: the same amount, converted by molar mass.

Assays:
T222 [1] = test: Concentration for 50% growth inhibition relative to untreated control in the human lung epidermoid carcinoma (T222) cell line; Not active; assay type: functional, cell-based
T222 [2] = test: Concentration for 50% growth inhibition relative to untreated control in the human lung epidermoid carcinoma (T222) cell line; assay type: functional, cell-based
Nucleic Acid [3] = test: Relative concentration of compound for alkylation of w794 DNA is detected at incubation condition of 4 degrees C for 24 hr; Range is 0.01-0.006; assay type: functional
Mus musculus [4] = test: Percent inhibition against [3H]leucine uptake at a dose of 0.05 mg/Kg in mouse bearing a T222 tumor burden; assay type: functional
Mus musculus [5] = test: Acute toxicity was measured as ratio of number of mice that died to the 5 mice in test group on a dose of 0.2 mg/Kg; assay type: organism-based; conditions: in vivo
Mus musculus [6] = test: Percent inhibition against [3H]leucine uptake at a dose of 0.2 mg/Kg in a mouse bearing a T222 tumor burden; assay type: functional
Mus musculus [7] = test: Acute toxicity was measured as ratio of number of mice that died to the 5 mice in test group on a dose of 0.4 mg/Kg; assay type: organism-based; conditions: in vivo
Mus musculus [8] = test: Acute toxicity was measured as ratio of number of mice that died to the 5 mice in the test group on a dose of 0.05 mg/Kg; assay type: organism-based; conditions: in vivo
Mus musculus [9] = test: Acute toxicity was measured as ratio of number of mice that died to the 5 mice in test group on a dose of 0.1 mg/Kg; assay type: organism-based; conditions: in vivo
Nucleic Acid [10] = test: Relative concentration of compound for alkylation of w794 DNA detected at incubation condition of 4 degrees C for 24 hr; Range is 1.0-0.2; assay type: functional
Mus musculus [11] = test: Percent inhibition against [3H]-Leucine uptake at a dose of 0.1 mg/Kg in a mouse bearing a T222 tumor burden; assay type: functional

Cc1coc2c(O)cc3c(c12)C(C)(C)CN3C(=O)c1cc2cc(NC(=O)c3cc4ccccc4[nH]3)ccc2[nH]1
IC50 (T222 [1]): Not Active

Cc1coc2c(O)cc3c(c12)[C@H](CCl)CN3C(=O)c1cc2cc(NC(=O)c3cc4ccccc4s3)ccc2[nH]1
IC50 (T222 [2]): 0.2 ng/mL (≈ 0.36 nM)

Cc1coc2c(O)cc3c(c12)[C@H](CCl)CN3C(=O)c1cc2cc(NC(=O)c3cc4ccccc4s3)ccc2s1
IC50 (T222 [2]): 0.2 ng/mL (≈ 0.349 nM)

Cc1coc2c(O)cc3c(c12)[C@@H](CCl)CN3C(=O)c1cc2cc(NC(=O)c3cc4ccccc4[nH]3)ccc2[nH]1
Efficiency (Nucleic Acid [3]): 0.006

Cc1coc2c(O)cc3c(c12)C(CCl)CN3C(=O)c1cc2cc(NC(=O)c3cc4ccccc4[nH]3)ccc2[nH]1 (single isomer, unassigned)
inhibition in vivo at 0.05 mg/kg (Mus musculus [4]): 68%
Toxicity (Mus musculus [5]): 1
inhibition in vivo at 0.2 mg/kg (Mus musculus [6]): 85%
Toxicity (Mus musculus [7]): 5
Toxicity (Mus musculus [8]): 0
Toxicity (Mus musculus [9]): 0
Efficiency (Nucleic Acid [10]): 0.2
inhibition in vivo at 0.1 mg/kg (Mus musculus [11]): 73%

CC[C@]1(O)C[C@@H]2CN(CCc3c([nH]c4ccccc34)[C@@](C(=O)OC)(c3cc4c(cc3OC)N(C)[C@H]3[C@@](O)(C(=O)NN)[C@H](O)[C@]5(CC)C=CCN6CC[C@]43[C@@H]65)C2)C1 [DESACETYLVINBLASTINEHYDRAZIDE]
IC50 (T222 [2]): 3 ng/mL (≈ 3.9 nM)
